Measured values taken from ChEMBL document CHEMBL1156476, “Inhibition of mammalian target of rapamycin signaling by 2-(morpholin-1-yl)pyrimido[2,1-alpha]isoquinolin-4-one” (J Biol Chem, 2007).
Blank lines part the entries; values can stand above or below the compound they belong to. The source made the active and inactive calls. No cut-off for these calls is given here.

Legend:
[1] = biological target: Phosphorylase b kinase gamma catalytic chain, liver/testis isoform (Homo sapiens) (UniProt P15735); test: Inhibition of PHKG2 at 5 uM
[2] = biological target: Rho-associated protein kinase 1 (Homo sapiens) (UniProt Q13464); test: Inhibition of ROCK1 at 5 uM
[3] = biological target: Epidermal growth factor receptor (Homo sapiens) (UniProt P00533); test: Inhibition of EGFR at 5 uM
Epidermal growth factor receptor (Homo sapiens), sequence (P00533 whole entry): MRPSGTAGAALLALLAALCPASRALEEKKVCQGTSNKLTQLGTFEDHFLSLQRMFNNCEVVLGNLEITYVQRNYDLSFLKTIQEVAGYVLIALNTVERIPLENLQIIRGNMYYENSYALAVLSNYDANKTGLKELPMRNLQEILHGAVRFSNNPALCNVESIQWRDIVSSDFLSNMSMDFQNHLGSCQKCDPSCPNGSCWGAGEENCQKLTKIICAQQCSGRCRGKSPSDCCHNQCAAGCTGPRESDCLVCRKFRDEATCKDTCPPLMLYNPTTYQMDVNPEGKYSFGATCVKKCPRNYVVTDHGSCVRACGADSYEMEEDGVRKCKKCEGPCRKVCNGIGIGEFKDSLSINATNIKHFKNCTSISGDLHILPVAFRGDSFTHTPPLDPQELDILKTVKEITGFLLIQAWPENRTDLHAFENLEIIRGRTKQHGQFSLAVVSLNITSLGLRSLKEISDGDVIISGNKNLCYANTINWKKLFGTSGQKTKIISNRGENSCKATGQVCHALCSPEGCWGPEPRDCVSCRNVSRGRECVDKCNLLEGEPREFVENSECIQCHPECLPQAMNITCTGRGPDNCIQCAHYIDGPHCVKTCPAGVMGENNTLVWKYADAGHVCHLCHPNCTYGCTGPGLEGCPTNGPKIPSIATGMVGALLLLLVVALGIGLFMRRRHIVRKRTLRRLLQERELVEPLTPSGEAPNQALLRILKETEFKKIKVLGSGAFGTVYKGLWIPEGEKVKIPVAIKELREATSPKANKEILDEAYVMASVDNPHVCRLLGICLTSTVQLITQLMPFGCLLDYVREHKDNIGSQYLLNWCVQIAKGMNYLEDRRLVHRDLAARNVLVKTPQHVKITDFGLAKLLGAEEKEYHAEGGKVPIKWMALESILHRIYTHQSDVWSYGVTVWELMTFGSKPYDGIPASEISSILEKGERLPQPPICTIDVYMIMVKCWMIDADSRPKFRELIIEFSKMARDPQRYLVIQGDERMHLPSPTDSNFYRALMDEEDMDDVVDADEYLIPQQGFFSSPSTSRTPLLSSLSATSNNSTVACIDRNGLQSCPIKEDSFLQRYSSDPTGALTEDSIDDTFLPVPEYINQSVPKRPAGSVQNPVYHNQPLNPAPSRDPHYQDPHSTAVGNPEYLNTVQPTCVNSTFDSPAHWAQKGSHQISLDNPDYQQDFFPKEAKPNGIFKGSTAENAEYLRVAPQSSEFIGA

[4] = biological target: Cyclin-dependent kinase 1/cyclin B1 (Homo sapiens) (UniProt P06493+P14635); test: Inhibition of CDK1/Cyclin B at 5 uM; format: protein-complex assay
Cyclin-dependent kinase 1/cyclin B1 (Homo sapiens), sequence (P06493 whole entry, looked up): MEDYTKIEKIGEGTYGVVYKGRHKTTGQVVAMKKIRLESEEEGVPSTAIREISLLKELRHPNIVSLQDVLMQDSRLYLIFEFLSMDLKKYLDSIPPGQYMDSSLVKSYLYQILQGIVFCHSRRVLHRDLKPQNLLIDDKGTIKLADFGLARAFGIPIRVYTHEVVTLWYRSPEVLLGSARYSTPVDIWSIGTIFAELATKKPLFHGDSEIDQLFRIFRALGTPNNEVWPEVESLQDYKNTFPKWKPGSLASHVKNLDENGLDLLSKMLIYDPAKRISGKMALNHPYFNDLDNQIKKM
Cyclin-dependent kinase 1/cyclin B1 (Homo sapiens), sequence (P14635 whole entry, looked up): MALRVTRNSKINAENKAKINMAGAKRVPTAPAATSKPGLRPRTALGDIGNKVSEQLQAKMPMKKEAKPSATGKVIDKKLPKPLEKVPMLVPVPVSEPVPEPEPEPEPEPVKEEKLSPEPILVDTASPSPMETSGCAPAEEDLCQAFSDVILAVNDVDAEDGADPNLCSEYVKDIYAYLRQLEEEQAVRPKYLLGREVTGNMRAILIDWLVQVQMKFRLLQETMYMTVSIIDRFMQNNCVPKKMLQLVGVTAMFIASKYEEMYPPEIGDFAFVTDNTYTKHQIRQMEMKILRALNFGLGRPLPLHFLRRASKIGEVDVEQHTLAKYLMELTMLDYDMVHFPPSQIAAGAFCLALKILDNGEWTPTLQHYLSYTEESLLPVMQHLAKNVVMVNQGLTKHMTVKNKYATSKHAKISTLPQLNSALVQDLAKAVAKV

[5] = biological target: Vascular endothelial growth factor receptor 2 (Homo sapiens) (UniProt P35968); test: Inhibition of KDR at 5 uM
[6] = biological target: Casein kinase I isoform gamma-2 (Homo sapiens) (UniProt P78368); test: Inhibition of CSNK1G2 at 5 uM
[7] = biological target: Receptor tyrosine-protein kinase erbB-2 (Homo sapiens) (UniProt P04626); test: Inhibition of ERBB2 at 5 uM
[8] = biological target: T1, Serine/threonine-protein kinase mTOR (Homo sapiens, UniProt P42345); test: Inhibition of IGF1-activated mTOR signaling in human M059J glioma cells assessed as Akt Ser473 site phosphorylation at 10 uM by Western blot; format: cell-based
[9] = biological target: T1, Serine/threonine-protein kinase mTOR; test: Inhibition of mTOR kinase activity in raptor immunoprecipitates expressed in human 293F cells at 10 uM by autoradiography; format: cell-based
[10] = biological target: Tyrosine-protein kinase ABL1 (Homo sapiens) (UniProt P00519); test: Inhibition of ABL1 at 5 uM
[11] = biological target: Insulin receptor (Homo sapiens) (UniProt P06213); test: Inhibition of INSR at 5 uM
[12] = biological target: T1, Serine/threonine-protein kinase mTOR; test: Inhibition of mTOR kinase activity in epitope-tagged AU1 immunoprecipitates expressed in human 293F cells at 5 uM by autoradiography; format: cell-based
[13] = biological target: Tyrosine-protein kinase JAK3 (Homo sapiens) (UniProt P52333); test: Inhibition of JAK3 at 5 uM
Fibroblast [14] = test: Induction of apoptosis in TSC1-deficient mouse embryo fibroblasts assessed as level of nucleosomes in cell cytoplasm at 10 uM after 24 hrs; format: functional, cell-based
[15] = biological target: Tyrosine-protein kinase Lck (Homo sapiens) (UniProt P06239); test: Inhibition of LCK at 5 uM
[16] = biological target: Tyrosine-protein kinase SYK (Homo sapiens) (UniProt P43405); test: Inhibition of SYK at 5 uM
[17] = biological target: Proto-oncogene tyrosine-protein kinase receptor Ret (Homo sapiens) (UniProt P07949); test: Inhibition of RET at 5 uM
[18] = biological target: Receptor-type tyrosine-protein kinase FLT3 (Homo sapiens) (UniProt P36888); test: Inhibition of FLT3 at 5 uM
[19] = biological target: MAP kinase-activated protein kinase 2 (Homo sapiens) (UniProt P49137); test: Inhibition of MAPKAPK2 at 5 uM
[20] = biological target: Platelet-derived growth factor receptor beta (Homo sapiens) (UniProt P09619); test: Inhibition of PDGFRbeta at 5 uM
[21] = biological target: Hepatocyte growth factor receptor (Homo sapiens) (UniProt P08581); test: Inhibition of MET at 5 uM
[22] = biological target: Tyrosine-protein kinase BTK (Homo sapiens) (UniProt Q06187); test: Inhibition of BTK at 5 uM
[23] = biological target: Ribosomal protein S6 kinase beta-1 (Mus musculus) (UniProt Q8BSK8); test: Blockade of S6K1 phosphorylation in TSC1-deficient mouse embryo fibroblasts assessed as Thr389 phosphorylation at 100 nM after 24 hrs by Western blot
Ribosomal protein S6 kinase beta-1 (Mus musculus), sequence (Q8BSK8 whole entry): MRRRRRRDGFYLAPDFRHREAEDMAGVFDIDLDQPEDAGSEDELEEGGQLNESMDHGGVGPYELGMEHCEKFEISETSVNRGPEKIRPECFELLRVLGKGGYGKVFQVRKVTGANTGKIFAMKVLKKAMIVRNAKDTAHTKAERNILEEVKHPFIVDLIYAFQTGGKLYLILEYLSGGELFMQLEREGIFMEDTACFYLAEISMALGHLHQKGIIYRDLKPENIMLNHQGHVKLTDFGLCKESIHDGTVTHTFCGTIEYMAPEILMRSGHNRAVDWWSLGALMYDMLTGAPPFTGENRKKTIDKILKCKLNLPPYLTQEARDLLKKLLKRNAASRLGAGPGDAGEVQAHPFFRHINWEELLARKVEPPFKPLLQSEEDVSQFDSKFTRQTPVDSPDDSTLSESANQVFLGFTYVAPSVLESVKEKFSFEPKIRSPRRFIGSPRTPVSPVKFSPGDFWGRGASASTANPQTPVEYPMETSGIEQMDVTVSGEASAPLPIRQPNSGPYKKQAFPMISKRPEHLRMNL

[24] = biological target: Interleukin-1 receptor-associated kinase 4 (Homo sapiens) (UniProt Q9NWZ3); test: Inhibition of IRAK4 at 5 uM
[25] = biological target: Fibroblast growth factor receptor 1 (Homo sapiens) (UniProt P11362); test: Inhibition of FGFR1 at 5 uM
Fibroblast growth factor receptor 1 (Homo sapiens), sequence (P11362 22-822 limits assumed): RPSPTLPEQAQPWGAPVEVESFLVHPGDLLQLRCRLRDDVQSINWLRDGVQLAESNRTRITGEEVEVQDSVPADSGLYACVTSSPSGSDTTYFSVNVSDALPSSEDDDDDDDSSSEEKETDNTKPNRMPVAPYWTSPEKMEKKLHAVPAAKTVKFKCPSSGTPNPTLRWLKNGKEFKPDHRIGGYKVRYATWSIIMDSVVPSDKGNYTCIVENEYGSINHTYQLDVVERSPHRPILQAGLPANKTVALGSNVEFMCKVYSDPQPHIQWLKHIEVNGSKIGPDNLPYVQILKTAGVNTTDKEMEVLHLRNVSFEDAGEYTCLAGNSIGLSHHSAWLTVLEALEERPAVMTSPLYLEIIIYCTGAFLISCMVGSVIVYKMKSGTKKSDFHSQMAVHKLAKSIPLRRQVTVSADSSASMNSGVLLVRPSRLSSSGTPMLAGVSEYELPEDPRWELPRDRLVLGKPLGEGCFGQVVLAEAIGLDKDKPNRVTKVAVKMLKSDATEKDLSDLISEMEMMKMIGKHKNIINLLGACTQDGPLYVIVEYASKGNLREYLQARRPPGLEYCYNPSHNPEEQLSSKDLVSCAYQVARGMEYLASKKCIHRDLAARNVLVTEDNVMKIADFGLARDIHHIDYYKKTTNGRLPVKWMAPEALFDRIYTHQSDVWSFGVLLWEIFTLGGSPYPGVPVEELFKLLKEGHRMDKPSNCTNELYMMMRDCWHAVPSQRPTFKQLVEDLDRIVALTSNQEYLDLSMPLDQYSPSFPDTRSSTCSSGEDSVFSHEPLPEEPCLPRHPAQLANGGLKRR

[26] = biological target: Glycogen synthase kinase-3 beta (Homo sapiens) (UniProt P49841); test: Inhibition of GSK3B at 5 uM
[27] = biological target: Insulin-like growth factor 1 receptor (Homo sapiens) (UniProt P08069); test: Inhibition of IGF1R at 5 uM
[28] = Inhibition of PDGFR in rat-1 cells assessed as PDGF-induced Erk phosphorylation by Western blot; format: cell-based
[29] = biological target: Angiopoietin-1 receptor (Homo sapiens) (UniProt Q02763); test: Inhibition of TEK at 5 uM
[30] = biological target: Alpha-1A adrenergic receptor (Homo sapiens) (UniProt P35348); test: Inhibition of phenylephrine-induced human adrenergic alpha1A receptor activity expressed in rat-1 fibroblasts assessed as S6K1 Thr389 site phosphorylation by Western blot
[31] = biological target: Mitogen-activated protein kinase 14 (Homo sapiens) (UniProt Q16539); test: Inhibition of MAPK14 at 5 uM
[32] = biological target: Mitogen-activated protein kinase 3 (Homo sapiens) (UniProt P27361); test: Inhibition of MAPK3 at 5 uM
[33] = biological target: Mitogen-activated protein kinase kinase kinase kinase 4 (Homo sapiens) (UniProt O95819); test: Inhibition of MAP4K4 at 5 uM
Mitogen-activated protein kinase kinase kinase kinase 4 (Homo sapiens), sequence (O95819 2-1239 limits assumed): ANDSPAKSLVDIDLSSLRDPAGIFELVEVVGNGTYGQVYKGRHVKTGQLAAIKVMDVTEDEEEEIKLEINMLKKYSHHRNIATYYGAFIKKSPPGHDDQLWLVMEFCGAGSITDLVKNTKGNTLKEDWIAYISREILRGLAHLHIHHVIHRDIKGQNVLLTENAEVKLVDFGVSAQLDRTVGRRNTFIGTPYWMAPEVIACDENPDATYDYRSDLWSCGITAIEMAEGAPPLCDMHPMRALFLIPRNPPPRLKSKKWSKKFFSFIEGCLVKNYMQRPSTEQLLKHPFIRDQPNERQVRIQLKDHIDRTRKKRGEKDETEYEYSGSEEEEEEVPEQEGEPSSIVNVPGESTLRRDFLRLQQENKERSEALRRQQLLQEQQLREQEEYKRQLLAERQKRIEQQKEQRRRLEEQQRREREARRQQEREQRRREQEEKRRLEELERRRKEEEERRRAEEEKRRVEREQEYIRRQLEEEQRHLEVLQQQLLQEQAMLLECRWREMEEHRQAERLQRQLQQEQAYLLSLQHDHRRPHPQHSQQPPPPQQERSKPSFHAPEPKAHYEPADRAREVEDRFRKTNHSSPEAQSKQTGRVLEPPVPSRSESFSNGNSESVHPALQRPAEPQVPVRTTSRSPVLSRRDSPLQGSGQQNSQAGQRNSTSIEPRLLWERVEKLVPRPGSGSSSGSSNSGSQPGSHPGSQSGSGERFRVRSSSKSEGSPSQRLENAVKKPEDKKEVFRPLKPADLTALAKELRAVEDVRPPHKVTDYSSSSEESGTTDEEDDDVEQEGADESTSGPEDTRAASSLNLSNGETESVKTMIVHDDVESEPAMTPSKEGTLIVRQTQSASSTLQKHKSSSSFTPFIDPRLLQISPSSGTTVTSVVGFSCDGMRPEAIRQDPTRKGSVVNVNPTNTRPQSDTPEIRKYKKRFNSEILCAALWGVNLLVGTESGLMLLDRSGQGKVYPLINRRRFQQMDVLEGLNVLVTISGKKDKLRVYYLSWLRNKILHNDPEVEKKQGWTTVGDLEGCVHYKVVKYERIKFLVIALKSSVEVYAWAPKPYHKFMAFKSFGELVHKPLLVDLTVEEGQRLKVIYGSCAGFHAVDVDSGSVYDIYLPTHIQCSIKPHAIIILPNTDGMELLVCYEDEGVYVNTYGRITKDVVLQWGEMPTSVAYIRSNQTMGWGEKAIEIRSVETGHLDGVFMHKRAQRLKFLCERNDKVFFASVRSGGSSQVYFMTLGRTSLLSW

[34] = biological target: Phosphatidylinositol 4,5-bisphosphate 3-kinase catalytic subunit alpha isoform (Homo sapiens) (UniProt P42336); test: Inhibition of p110-alpha PI3K assessed as p85alpha autophosphorylation at 25 uM by autoradiography
[35] = biological target: Protein kinase C beta type (Homo sapiens) (UniProt P05771); test: Inhibition of PRKCB1 at 5 uM
[36] = Antiproliferative activity against TSC1-deficient mouse embryo fibroblasts assessed as decrease in cell number at 10 uM after 1 day relative to control; format: functional, Fibroblast; parameters: scale not given: the % may be the effect or the level left
[37] = biological target: T1, Serine/threonine-protein kinase mTOR; test: Inhibition of PDGF-activated mTOR signaling in rat-1 fibroblasts assessed as Akt Ser473 site phosphorylation at 10 uM by Western blot
[38] = biological target: Dual specificity mitogen-activated protein kinase kinase 1 (Homo sapiens) (UniProt Q02750); test: Inhibition of MAP2K1 at 5 uM
Dual specificity mitogen-activated protein kinase kinase 1 (Homo sapiens), sequence (Q02750 whole entry): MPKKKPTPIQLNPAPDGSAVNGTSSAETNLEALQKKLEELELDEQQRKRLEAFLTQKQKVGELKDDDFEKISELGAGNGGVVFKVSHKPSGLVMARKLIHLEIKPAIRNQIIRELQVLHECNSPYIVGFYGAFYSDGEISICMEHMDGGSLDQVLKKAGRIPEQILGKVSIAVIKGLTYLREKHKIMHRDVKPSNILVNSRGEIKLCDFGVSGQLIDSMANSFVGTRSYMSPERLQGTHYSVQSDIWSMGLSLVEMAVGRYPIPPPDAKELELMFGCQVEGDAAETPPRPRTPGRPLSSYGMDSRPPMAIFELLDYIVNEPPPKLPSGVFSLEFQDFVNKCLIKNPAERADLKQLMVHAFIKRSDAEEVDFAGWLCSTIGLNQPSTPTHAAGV

Fibroblast [39] = test: Induction of apoptosis in TSC1-deficient mouse embryo fibroblasts assessed as level of nucleosomes in cell cytoplasm at 100 nM after 24 hrs; format: functional, cell-based
[40] = biological target: T1, Serine/threonine-protein kinase mTOR; test: Inhibition of IGF1-activated mTOR signaling in human M059J glioma cells assessed as S6K1 Thr389 site phosphorylation at 10 uM by Western blot; format: cell-based
[41] = biological target: Dual specificity tyrosine-phosphorylation-regulated kinase 3 (Homo sapiens) (UniProt O43781); test: Inhibition of DYRK3 at 5 uM
Fibroblast [42] = test: Antiproliferative activity against TSC1-deficient mouse embryo fibroblasts assessed as decrease in cell number; format: functional, cell-based
[43] = biological target: T1, Serine/threonine-protein kinase mTOR; test: Inhibition of PDGF-activated mTOR signaling in rat-1 fibroblasts assessed as S6K1 Thr389 site phosphorylation at 10 uM by Western blot
[44] = biological target: Casein kinase II subunit alpha (Homo sapiens) (UniProt P68400); test: Inhibition of CSNK2A1 at 5 uM
[45] = Antiproliferative activity against TSC1-deficient mouse embryo fibroblasts assessed as decrease in cell number at 10 uM after 2 day relative to control; format: functional, Fibroblast; parameters: scale not given: the % may be the effect or the level left
[46] = biological target: Serine/threonine-protein kinase Chk1 (Homo sapiens) (UniProt O14757); test: Inhibition of CHEK1 at 5 uM
[47] = biological target: Ribosomal protein S6 kinase alpha-3 (Homo sapiens) (UniProt P51812); test: Inhibition of RPS6KA3 at 5 uM
COS-7 = test: Inhibition of Akt T308D mutant transfected in african green monkey COS7 cells assessed as insulin-induced […] phosphorylation by Western blot; format: cell-based
[48] = biological target: RAC-alpha serine/threonine-protein kinase (Homo sapiens) (UniProt P31749); test: Inhibition of AKT1 at 5 uM
[49] = biological target: Aurora kinase A (Homo sapiens) (UniProt O14965); test: Inhibition of STK6 at 5 uM
[50] = biological target: Serine/threonine-protein kinase pim-1 (Homo sapiens) (UniProt P11309); test: Inhibition of PIM1 at 5 uM
[51] = biological target: Mast/stem cell growth factor receptor Kit (Homo sapiens) (UniProt P10721); test: Inhibition of KIT at 5 uM
[52] = biological target: PI3-kinase p110-alpha/p85-alpha (Homo sapiens, UniProt P42336); test: Inhibition of p110alpha/p85-alpha PI3K; format: protein-complex assay
[53] = biological target: Ribosomal protein S6 kinase beta-1 (Mus musculus) (UniProt Q8BSK8); test: Blockade of S6K1 phosphorylation in TSC1-deficient mouse embryo fibroblasts assessed as Thr389 phosphorylation at 10 uM after 24 hrs by Western blot
[54] = tested on: RAC-alpha serine/threonine-protein kinase (Homo sapiens), P31749 [S473D]; test: Inhibition of Akt S473D mutant transfected in african green monkey COS7 cells assessed as insulin-induced […] phosphorylation by Western blot; format: cell-based; settings: COS-7
[55] = biological target: RAC-alpha serine/threonine-protein kinase (Mus musculus) (UniProt P31750); test: Increase in Akt phosphorylation in TSC1-deficient mouse embryo fibroblasts assessed as Ser 473 phosphorylation at 100 nM after 24 hrs by Western blot
[56] = Antiproliferative activity against TSC1-deficient mouse embryo fibroblasts assessed as decrease in cell number at 100 nM after 2 day relative to control; format: functional, Fibroblast; parameters: scale not given: the % may be the effect or the level left
[57] = biological target: DNA-dependent protein kinase catalytic subunit (Homo sapiens, UniProt P78527); test: Inhibition of DNA-PK
[58] = biological target: T1, Serine/threonine-protein kinase mTOR; test: Inhibition of mTOR
[59] = biological target: T1, Serine/threonine-protein kinase mTOR; test: Inhibition of PDGF-activated mTOR signaling in rat-1 fibroblasts assessed as Akt Ser473 site phosphorylation by Western blot
[60] = biological target: T1, Serine/threonine-protein kinase mTOR; test: Inhibition of PDGF-activated mTOR signaling in rat-1 fibroblasts assessed as S6K1 Thr389 site phosphorylation by Western blot

inhibition [1]: -6%
inhibition [2]: 13%
inhibition [3]: -3%
inhibition [4]: 3%
inhibition [5]: 0%
inhibition [6]: 2%
inhibition [7]: 3%
Activity [8]: Active
inhibition [9]: 78%
inhibition [10]: -5%
inhibition [11]: -3%
inhibition [12]: 67%
inhibition [13]: 2%
inhibition [15]: -3%
inhibition [16]: 14%
inhibition [17]: -4%
inhibition [18]: 36%
inhibition [19]: 40%
inhibition [20]: -4%
inhibition [21]: 19%
inhibition [22]: 9%
Activity [23]: Active
inhibition [24]: -5%
inhibition [25]: 0%
inhibition [26]: 0%
inhibition [27]: -8%
inhibition [29]: 12%
Activity [30]: Active
inhibition [31]: 17%
inhibition [32]: -3%
inhibition [33]: 3%
Activity [34]: inactive
inhibition [35]: 8%
Activity [37]: Active
inhibition [38]: -8%
Activity [40]: Active
inhibition [41]: 5%
Activity [43]: Active
inhibition [44]: 3%
inhibition [46]: -9%
inhibition [47]: 7%
inhibition [48]: 5%
inhibition [49]: 44%
inhibition [50]: 44%
inhibition [51]: 13%
IC50 [52]: > 100 µM
Activity [53]: Active
Activity [54]: Active
Compound: O=c1cc(N2CCOCC2)nc2c3ccccc3ccn12
Activity (Fibroblast [14]): Active
Activity [28]: inactive
Activity [36]: 54%
Activity (Fibroblast [39]): inactive
Activity (Fibroblast [42]): Dose-dependent effect
Activity [45]: 84%
Activity (COS-7): inactive

Activity [55]: Active
Compound: CO[C@H]1C[C@@H]2CC[C@@H](C)[C@@](O)(O2)C(=O)C(=O)N2CCCC[C@H]2C(=O)O[C@H]([C@H](C)C[C@@H]2CC[C@@H](O)[C@H](OC)C2)CC(=O)[C@H](C)/C=C(\C)[C@@H](O)[C@@H](OC)C(=O)[C@H](C)C[C@H](C)/C=C/C=C/C=C/1C [SIROLIMUS]
Activity [56]: 57%

IC50 [57]: 0.27 µM
IC50 [58]: > 100 µM
Compound: O=C(c1ccccc1)c1ccc(N2CCOCC2)cc1O

Activity [59]: Active
IC50 [58]: 5 µM
Activity [60]: Active
Compound: O=c1cc(N2CCOCC2)oc2c(-c3ccccc3)cccc12 [LY-294002]
